The record followed here is patent US20190256929A1, “PHARMACODYNAMIC BIOMARKERS FOR PERSONALIZED CANCER CARE USING EPIGENETIC MODIFYING AGENTS” (ORYZON GENOMICS, S.A., priority 2016, published 2019).

One experiment deals with SCLC 510A xenografts. In words: RNA-seq PD gene change in H510A SCLC xenograft mouse model. The format is in vivo, mice. The settings on record: for ASCL1 Log2FC / GRP Log2FC / NOTCH1 Log2FC: vs vehicle. The procedure:
Female athymic nude mice, approximately 7-8-week old animals, were injected with 5 million H510A cells per 50 μL PBS and 50 μL Matrigel (BD Bioscience) into the right flank of each animal. After tumor growth reached 200-300 mm3, animals were distributed in three homogeneous groups with similar mean tumor volume and SD. Animals were treated with vehicle, 20 μg/Kg and 40 μg/Kg of (trans)-N1-((1R,2S)-2-phenylcyclopropyl)cyclohexane-1,4-diamine for 3 weeks according to the 5 days on/2 days off schedule.
Mice were sacrificed at day 35 at 1, 6 and 24 hours post last injection. Blood was extracted in Microvette® (Sarstedt) tubes, centrifuged on a bench-top centrifuge at 2000 rpm for 15 min at 4 C. Supernatant was stored at −80° C. Tumors were removed and divided in 3 parts: ⅓ was immersed in RNA-Later and snap frozen for subsequent analysis. Frozen material was stored at −80° C. before shipment.
Whole transcriptomic RNA sequencing procedure is identical to that as described in Example 1. Raw RNASeq reads were aligned to the mouse and the human transcriptome using GSNAP and were then analyzed. Reads mapped to both organisms were filtered out and only reads that were uniquely aligned to human or mouse were used to profile the respective genes. The log 2 fold change of three candidate PD markers between (trans)-N1-((1R,2S)-2-phenylcyclopropyl)cyclohexane-1,4-diamine treated and vehicle treated samples were calculated using DESeq2 package (Love et al.).

For another experiment, the system named is PDX model FHSC04. In words: RNA-seq PD gene change in SCLC PDX model FHSC04 treated in vivo. The arrangement: species or system mice. The settings on record: 400 μg/kg oral gavage. As for the experimental part:
To confirm the results obtained for small cell lung cancer cell line xenograft, changes in PD markers Notch1, ASCL1 and GRP were evaluated in PDX model FHSC04 treated in vivo with LSD1i (trans)-N1-((1R,2S)-2-phenylcyclopropyl)cyclohexane-1,4-diamine (FIG. 13). Eight to twelve-week-old NOD scid gamma mice were implanted with 1.0×10^6 disaggregated cells from PDX model FHSC04 in 100 μl of 1:1 HITES media:Matrigel. […] Once tumor volume reached 150-200 mm^3, mice were randomly assigned to treatment groups for 21-35 days, depending on the kinetics of growth in the given model. Animals were treated with saline or with 400 μg/kg ((trans)-N1-((1R,2S)-2-phenylcyclopropyl)cyclohexane-1,4-diamine, delivered by oral gavage once every 7 days, dissolved to 10 ml/kg with 0.9% saline solution. For the 10-day treatment in FHSC04 used for molecular analyses, an additional dose of 400 μg/kg (trans)-N1-((1R,2S)-2-phenylcyclopropyl)cyclohexane-1,4-diamine was given 4 hours before tissue collection.
For RNA-seq analyses using PDX samples in vivo, the Ultra RNA Library Prep Kit for Illumina (New England BioLabs; catalog E753L) was used to generate libraries from total RNA. All library preparation was conducted according to the manufacturer's instructions. Single-end sequencing (50 bp) was performed using an Illumina HiSeq 2500, reads of low quality were filtered prior to alignment to the hg19 genome build using TopHat v2.0.12 (Trapnell et al. Bioinformatics 2009 May 1; 25(9): 1105-1111). In vivo PDX samples were also aligned to mm9, where the mouse and human alignments from a given sample were compared, discarding from downstream analysis those reads which had fewer mismatches to mouse, relative to human. Cuffdiff v2.1.1 (Trapnell et al. Nat Biotechnol. 2013 January; 31(1):46-53) was used to generate fragment per kilobase per million (FPKM) expression values. Counts (CPM) were generated from TopHat alignments using the Python package HTSeq v0.6.1 (Anders et al. Bioinformatics. 2015 Jan. 15; 31(2): 166-169) using the “intersection-strict” overlap mode. […]

The mark [1] stands for this setting: 20 μg/kg, 1 h post last injection.
[2] abbreviates: 20 μg/kg, 6 h post last injection.
[3] abbreviates: 20 μg/kg, 24 h post last injection.
Setting [4] is: 40 μg/kg, 1 h post last injection.
Where [5] appears, read: 40 μg/kg, 6 h post last injection.
Where [6] appears, read: 40 μg/kg, 24 h post last injection.

Consider `N[C@H]1CC[C@H](N[C@@H]2C[C@H]2c2ccccc2)CC1` [RG6016, (trans)-N1-((1R,2S)-2-phenylcyclopropyl)cyclohexane-1,4-diamine], for which, in the experiment on SCLC 510A xenografts (setting [1]), the “ASCL1 Log2FC” value was −0.525, the “GRP Log2FC” value is reported as −1.607 and the “NOTCH1 Log2FC” value is on record as 1.947. In addition, in the experiment on SCLC 510A xenografts (setting [2]), the “ASCL1 Log2FC” value is recorded as −0.545, the “GRP Log2FC” value was −0.794 and the “NOTCH1 Log2FC” value is listed as 1.388. For the same molecule, in the experiment with SCLC 510A xenografts (setting [3]), the “ASCL1 Log2FC” value is reported as −0.472, the “GRP Log2FC” value was −1.205 and the “NOTCH1 Log2FC” value stood at 1.679. In the experiment on SCLC 510A xenografts (setting [4]), the “ASCL1 Log2FC” value is listed as −0.783, the “GRP Log2FC” value is on record as −1.75 and the “NOTCH1 Log2FC” value stood at 2.727. In the experiment with SCLC 510A xenografts (setting [5]), the “ASCL1 Log2FC” value is −0.825, the “GRP Log2FC” value was −1.421 and the “NOTCH1 Log2FC” value turned out to be 2.321. Besides, in the experiment with SCLC 510A xenografts (setting [6]), the “ASCL1 Log2FC” value was −1.286, the “GRP Log2FC” value is on record as −2.742 and the “NOTCH1 Log2FC” value is on record as 3.423. For the same molecule, in the experiment with SCLC 510A xenografts (SCLC 510A xenografts), the “ASCL1 transcript down regulation (FIG. 9)” value was “dose and time dependent”; the “GRP transcript down regulation (FIG. 10)” value was “dose and time dependent”; the “NOTCH1 transcript up regulation (FIG. 11)” value is “dose and time dependent”. Further, in the experiment with PDX model FHSC04, the “ASCL1 transcript regulation (FIG. 13)” value was “down regulation”, the “GRP transcript regulation (FIG. 13)” value is listed as “down regulation” and the “NOTCH1 transcript regulation (FIG. 13)” value is listed as “up regulation”.
